From PubChem BioAssay (NCI)
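Compound exposure: 48 hours, 5 concentrations, 96-well plates. At the TGI there is no net growth.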

Key:
Test in all cases: NCI-60 cell line screen, 48 h
[1] = system: SF-295 CNS
[2] = system: MDA-MB-231 breast
[3] = system: SK-OV-3 ovarian
[4] = system: HS 578T breast
[5] = system: SF-268 CNS
[6] = system: NCI-H522 lung
[7] = system: COLO 205 colon
[8] = system: MDA-MB-435
[9] = system: NCI/ADR-RES ovarian
[10] = system: SK-MEL-5 melanoma
[11] = system: UO-31 renal
[12] = system: MALME-3M melanoma
[13] = system: NCI-H23 lung
[14] = system: SNB-19 CNS
[15] = system: OVCAR-4 ovarian
[16] = system: A549 NSCLC
[17] = system: K-562 leukemia
[18] = system: MCF7 breast
[19] = system: 786-0 renal
[20] = system: SW-620 colon
[21] = system: RPMI-8226 leukemia
[22] = system: EKVX NSCLC
[23] = system: HCT-116 colon
[24] = system: DU-145 prostate
[25] = system: CAKI-1 renal
[26] = system: LOX IMVI melanoma
[27] = system: SNB-75 CNS
[28] = system: ACHN renal
[29] = system: HCT-15 colon
[30] = system: SR leukemia
[31] = system: CCRF-CEM leukemia
[32] = system: BT-549 breast
[33] = system: MOLT-4 leukemia
[34] = system: HOP-62 NSCLC
[35] = system: UACC-257 melanoma
[36] = system: T-47D breast
[37] = system: HL-60(TB) leukemia
[38] = system: OVCAR-5 ovarian
[39] = system: OVCAR-3 ovarian
[40] = system: HOP-92 NSCLC
[41] = system: SF-539 CNS
[42] = system: NCI-H226 lung
[43] = system: RXF 393 renal
[44] = system: SK-MEL-2 melanoma
[45] = system: MDA-N
[46] = system: NCI-H460 lung
[47] = system: HCC-2998 colon
[48] = system: OVCAR-8 ovarian
[49] = system: PC-3 prostate
[50] = system: U251 CNS
[51] = system: M14 melanoma
[52] = system: SN12C renal
[53] = system: SK-MEL-28 melanoma
[54] = system: IGROV1 ovarian
[55] = system: A498 renal
[56] = system: TK-10 renal
[57] = system: KM12 colon
[58] = system: UACC-62 melanoma
[59] = system: HT29 colon
[60] = system: M19-MEL melanoma
[61] = system: LXFL 529 NSCLC
[62] = system: DLD-1 colon
[63] = system: DMS 273 small cell lung
[64] = system: DMS 114 small cell lung

`Oc1cc(O)c2c(c1)O[C@H](c1cc(O)c(O)c(O)c1)[C@@H](O)C2` showed a TGI [1] of 73.2 µM, a TGI [2] of 34 µM and a TGI [3] of 74.7 µM. The TGI [4] was over 100 µM, the TGI [5] was 58.7 µM and the TGI [6] was 35.1 µM. It also gave a TGI [7] of 35.8 µM, a TGI [8] of 38.1 µM and a TGI [9] of over 100 µM. For the same compound, the TGI [10] was 60.2 µM, the TGI [11] was 35.9 µM and the TGI [12] was over 100 µM. It also gave a TGI [13] of 58.2 µM, a TGI [14] of over 100 µM and a TGI [15] of 48.7 µM. For the same compound, the TGI [16] was over 100 µM, the TGI [17] was 38.2 µM and the TGI [18] was 35.2 µM. It also gave a TGI [19] of 32.8 µM, a TGI [20] of 32.7 µM and a TGI [21] of 43.9 µM. It also gave a TGI [22] of 94.9 µM, a TGI [23] of 33.2 µM and a TGI [24] of over 100 µM. For the same compound, the TGI [25] was over 100 µM, the TGI [26] was 37.9 µM and the TGI [27] was 38.7 µM. It also gave a TGI [28] of 48 µM, a TGI [29] of over 100 µM and a TGI [30] of 39.1 µM. For the same compound, the TGI [31] was 43.4 µM, the TGI [32] was 51.5 µM and the TGI [33] was over 10 µM. For the same compound, the TGI [34] was 34 µM, the TGI [35] was over 100 µM and the TGI [36] was 68.7 µM. The TGI [37] was 45.4 µM, the TGI [38] was 34.8 µM and the TGI [39] was 46.6 µM. It also gave a TGI [40] of over 10 µM, a TGI [41] of 40.7 µM and a TGI [42] of 86.5 µM. The TGI [43] was 30.7 µM, the TGI [44] was 64.8 µM and the TGI [45] was 44.2 µM. For the same compound, the TGI [46] was 37.7 µM, the TGI [47] was over 10 µM and the TGI [48] was 31.1 µM. It also gave a TGI [49] of 76.2 µM, a TGI [50] of 34.5 µM and a TGI [51] of 57.6 µM. The TGI [52] was 33 µM, the TGI [53] was over 100 µM and the TGI [54] was 38.9 µM. The TGI [55] was over 100 µM.
Compound `Cc1ccc(/C(O)=C/c2nc3cccnc3[nH]c2=O)cc1` has a TGI [1] of over 100 µM, a TGI [2] of over 100 µM and a TGI [3] of over 100 µM. It also gave a TGI [4] of over 100 µM, a TGI [5] of over 100 µM and a TGI [6] of over 100 µM. It also gave a TGI [7] of over 100 µM, a TGI [8] of over 100 µM and a TGI [9] of over 100 µM. For the same compound, the TGI [10] was over 100 µM, the TGI [11] was over 100 µM and the TGI [12] was over 100 µM. It also gave a TGI [13] of over 100 µM, a TGI [14] of over 100 µM and a TGI [15] of over 100 µM. For the same compound, the TGI [16] was over 100 µM, the TGI [17] was over 100 µM and the TGI [18] was over 100 µM. For the same compound, the TGI [19] was over 100 µM, the TGI [21] was over 100 µM and the TGI [22] was over 100 µM. It also gave a TGI [23] of over 100 µM, a TGI [24] of over 100 µM and a TGI [25] of over 100 µM. The TGI [56] was over 100 µM, the TGI [26] was over 100 µM and the TGI [28] was over 100 µM. It also gave a TGI [29] of over 100 µM, a TGI [30] of over 100 µM and a TGI [31] of over 100 µM. The TGI [32] was over 100 µM, the TGI [33] was over 100 µM and the TGI [34] was 85.9 µM. For the same compound, the TGI [35] was over 100 µM, the TGI [36] was over 100 µM and the TGI [37] was over 100 µM. It also gave a TGI [38] of over 100 µM, a TGI [39] of over 100 µM and a TGI [40] of over 100 µM. It also gave a TGI [41] of over 100 µM, a TGI [42] of over 100 µM and a TGI [43] of 80.1 µM. It also gave a TGI [57] of over 100 µM, a TGI [44] of over 100 µM and a TGI [45] of over 100 µM. It also gave a TGI [46] of over 100 µM, a TGI [47] of over 100 µM and a TGI [48] of over 100 µM. It also gave a TGI [49] of over 100 µM, a TGI [58] of over 100 µM and a TGI [59] of over 100 µM. It also gave a TGI [50] of over 100 µM, a TGI [51] of over 100 µM and a TGI [52] of over 100 µM. It also gave a TGI [53] of over 100 µM, a TGI [54] of over 100 µM and a TGI [55] of over 100 µM.
`CC(=O)Oc1c2c(c(OC(C)=O)c3c1n(C(C)=O)c1ccccc1n3C(C)=O)n(C(C)=O)c1ccccc1n2C(C)=O` was tested, and the TGI [1] was 28.9 µM, the TGI [3] was 50 µM and the TGI [5] was 24.9 µM. It also gave a TGI [6] of 5.97 µM, a TGI [10] of 39 µM and a TGI [11] of 25.2 µM. For the same compound, the TGI [12] was 7.56 µM, the TGI [13] was 25.7 µM and the TGI [14] was 53.8 µM. It also gave a TGI [15] of 40.5 µM, a TGI [16] of 24.2 µM and a TGI [17] of over 100 µM. The TGI [20] was 5.67 µM, the TGI [21] was 10.8 µM and the TGI [25] was 55.1 µM. It also gave a TGI [60] of 14.4 µM, a TGI [26] of 24.6 µM and a TGI [27] of 46.1 µM. The TGI [28] was 25.4 µM, the TGI [29] was 13 µM and the TGI [30] was 7.69 µM. For the same compound, the TGI [31] was 15.6 µM, the TGI [33] was 8.7 µM and the TGI [61] was 16.5 µM. For the same compound, the TGI [34] was 53.5 µM, the TGI [35] was 13 µM and the TGI [37] was 6.1 µM. The TGI [39] was 5.68 µM, the TGI [41] was 30.8 µM and the TGI [62] was 11.8 µM. The TGI [43] was 26.8 µM, the TGI [57] was 31.5 µM and the TGI [44] was 24 µM. For the same compound, the TGI [46] was 15.4 µM, the TGI [47] was 18.9 µM and the TGI [58] was 37 µM. It also gave a TGI [63] of 10.6 µM, a TGI [59] of 13 µM and a TGI [64] of 7.96 µM. The TGI [50] was 29.5 µM, the TGI [51] was 20.7 µM and the TGI [52] was 19.3 µM. It also gave a TGI [53] of 16.8 µM and a TGI [55] of 39 µM.
With `Oc1cc(Cl)cc2cc(Cl)cnc12` the TGI [1] was 88.7 µM, the TGI [2] was 77.2 µM and the TGI [3] was over 100 µM. For the same compound, the TGI [4] was over 100 µM, the TGI [5] was over 100 µM and the TGI [6] was 24.3 µM. The TGI [7] was over 100 µM, the TGI [8] was over 100 µM and the TGI [9] was 6.67 µM. The TGI [10] was 53.3 µM, the TGI [11] was 20.5 µM and the TGI [12] was 34.9 µM. The TGI [13] was 24.4 µM, the TGI [14] was over 100 µM and the TGI [15] was over 100 µM. It also gave a TGI [16] of over 100 µM, a TGI [17] of 10.6 µM and a TGI [18] of 54.6 µM. For the same compound, the TGI [19] was over 100 µM, the TGI [20] was over 100 µM and the TGI [21] was 12.2 µM. The TGI [22] was 10.6 µM, the TGI [23] was over 100 µM and the TGI [24] was over 100 µM. For the same compound, the TGI [25] was 57.7 µM, the TGI [56] was 76.2 µM and the TGI [26] was 13.1 µM. It also gave a TGI [27] of 94 µM, a TGI [28] of 21.3 µM and a TGI [29] of 27.3 µM. It also gave a TGI [30] of 13.6 µM, a TGI [31] of 6.37 µM and a TGI [32] of over 100 µM. It also gave a TGI [33] of 11.5 µM, a TGI [34] of 89.9 µM and a TGI [35] of over 100 µM. For the same compound, the TGI [36] was 9.95 µM, the TGI [37] was 0.902 µM and the TGI [38] was over 100 µM. It also gave a TGI [39] of 5.43 µM, a TGI [40] of 74.1 µM and a TGI [41] of over 100 µM. It also gave a TGI [42] of 92.2 µM, a TGI [43] of 48.2 µM and a TGI [57] of over 100 µM. It also gave a TGI [45] of over 100 µM, a TGI [46] of 14 µM and a TGI [47] of 65.9 µM. For the same compound, the TGI [48] was over 100 µM, the TGI [49] was over 100 µM and the TGI [58] was 7.81 µM. For the same compound, the TGI [59] was over 100 µM, the TGI [50] was over 100 µM and the TGI [51] was over 100 µM. For the same compound, the TGI [52] was over 100 µM, the TGI [53] was over 100 µM and the TGI [54] was 22.6 µM. For the same compound, the TGI [55] was 34.5 µM.
